Legend:
nutsedge, yellow = test: Test C preemergence; format: in vivo, Cyperus esculentus; conditions: for Plant response rating (scale of 0 to 100 where 0 is no effect and 100 is complete control): Nutsedge, Yellow, preemergence; for Nutsedge, Yellow plant response rating (0 to 100): Preemergence, visual rating after 13 to 15 d
Excerpt: (§1) Seeds of plant species selected from blackgrass (Alopecurus myosuroides), ryegrass, Italian (Italian ryegrass, Lolium multiflorum), wheat (winter wheat, Triticum aestivum), galium (catchweed bedstraw, Galium aparine), corn (Zea mays), crabgrass, large (large crabgrass, Digitaria sanguinalis), foxtail, giant, (giant foxtail, Setaria faberii), johnsongrass (Sorghum halepense), lambsquarters (Chenopodium album), morningglory (Ipomoea coccinea), nutsedge, yellow (yellow nutsedge, Cyperus esculentus), pigweed (Amaranthus retroflexus), ragweed (common ragweed, Ambrosia elatior), soybean (Glycine max), barnyardgrass (Echinochloa crus-galli), oilseed rape (Brassica napus), waterhemp (common waterhemp, Amaranthus rudis), and velvetleaf (Abutilon theophrasti) were planted into a blend of loam soil and sand and treated preemergence with test chemicals formulated in a non-phytotoxic solvent mixture which included a surfactant. At the same time, plants selected from these crop and weed species and also chickweed (common chickweed, Stellaria media), oat, wild (wild oat, Avena fatua), and kochia (Kochia scoparia), were planted in pots containing Sunshine Redi-Earth® planting medium comprising spaghnum peat moss, vermiculite, starter nutrients and dolomitic limestone and treated with postemergence applications of test chemicals formulated in the same manner. Plants ranged in height from 2 to 18 cm (1- to 4-leaf stage) for postemergence treatments. […] A dash (-) response means no test result.

kochia = test: Test A postemergence; format: in vivo, Kochia scoparia; conditions: 0 to 100 scale (0 no effect, 100 complete control), approx. 10 d
How it was run: (§2)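 Ratings reflect visual injury after ~10 d in greenhouse, 0 = no effect, 100 = complete control. Postemergence treatment was applied to one- to two-leaf seedlings; preemergence treatment was a directed soil spray at planting.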

field poppy [1] = test: Test D preemergence; format: in vivo, Papaver rhoeas; conditions: for Plant response rating (0 to 100), Field Poppy: 16 g ai/ha, 0 is no effect, 100 is complete control; for Plant response rating: Field Poppy: scale 0 to 100
Excerpt: (§3) Seeds of plant species selected from bluegrass (annual bluegrass, Poa annua), blackgrass (Alopecurus myosuroides), canarygrass (Phalaris minor), chickweed (common chickweed, Stellaria media), galium (catchweed bedstraw, Galium aparine), bromegrass, down (downy bromegrass, Bromus tectorum), Russian thistle (Salsola kali), field poppy (Papaver rhoeas), field violet (Viola arvensis), foxtail, green (green foxtail, Setaria viridis), deadnettle (henbit deadnettle, Lamium amplexicaule), ryegrass, Ital. (Italian ryegrass, Lolium multiflorum), kochia (Kochia scoparia), lambsquarters (Chenopodium album), oilseed rape (Brassica napus), pigweed (Amaranthus retroflexus), chamomile (scentless chamomile, Matricaria inodora), speedwell (bird's-eye speedwell, Veronica persica), barley, spring (spring barley, Hordeum vulgare), wheat, spring (spring wheat, Triticum aestivum), buckwheat, wild (wild buckwheat, Polygonum convolvulus), wild mustard (Sinapis arvensis), oat, wild (wild oat, Avena fatua), radish, wild (wild radish, Raphanus raphanistrum), […]), barley, winter (winter barley, Hordeum vulgare), and wheat, winter (winter wheat, Triticum aestivum) were planted into a silt loam soil and treated preemergence with test chemicals formulated in a non-phytotoxic solvent mixture which included a surfactant. At the same time, these species were planted in pots containing Sunshine Redi-Earth® planting medium comprising spaghnum peat moss, vermiculite, starter nutrients and dolomitic limestone and treated with postemergence applications of the test chemicals formulated in the same manner. Plants ranged in height from 2 to 18 cm (1- to 4-leaf stage). Treated plants and controls were maintained in a controlled growth environment for 14 to 21 d after which time all species were compared to controls and visually evaluated. […] A dash (-) response means no test result.

lambsquarters = test: Test D postemergence; format: in vivo, Chenopodium album; conditions: scale 0 to 100
Excerpt: as §3

ragweed [2] = test: Test A preemergence; format: in vivo, Ambrosia elatior; conditions: 0 to 100 scale (0 no effect, 100 complete control)
How it was run: as §2

windgrass = test: Test D postemergence; format: in vivo, Apera spica-venti; conditions: scale 0 to 100
Excerpt: as §3

ragweed [3] = test: Test C preemergence; format: in vivo, Ambrosia elatior; conditions: for Ragweed plant response rating (0 to 100): Preemergence, visual rating after 13 to 15 d; for Plant response rating (scale of 0 to 100 where 0 is no effect and 100 is complete control): Ragweed, preemergence
Excerpt: as §1

canarygrass = test: Test D preemergence; format: in vivo, Phalaris minor; conditions: for Plant response rating (0 to 100), Canarygrass: 16 g ai/ha, 0 is no effect, 100 is complete control; for Plant response rating: Canarygrass: scale 0 to 100
Excerpt: as §3

galium [4] = test: Test D preemergence; format: in vivo, Galium aparine; conditions: for Plant response rating (0 to 100), Galium: 16 g ai/ha, 0 is no effect, 100 is complete control; for Plant response rating: Galium: scale 0 to 100
Excerpt: as §3

ryegrass, Ital. = test: Test D postemergence; format: in vivo, Lolium multiflorum; conditions: scale 0 to 100
Excerpt: as §3

field poppy [5] = test: Test D postemergence; format: in vivo, Papaver rhoeas; conditions: scale 0 to 100
Excerpt: as §3

galium [6] = test: Test C preemergence; format: in vivo, Galium aparine; conditions: for Plant response rating (scale of 0 to 100 where 0 is no effect and 100 is complete control): Galium, preemergence; for Galium plant response rating (0 to 100): Preemergence, visual rating after 13 to 15 d
Excerpt: as §1

oat, wild = test: Test D postemergence; format: in vivo, Avena fatua; conditions: scale 0 to 100
Excerpt: as §3

Structure (SMILES): Fc1ccc(-c2nc(OCC(F)(F)F)n(Cc3ccnc(C(F)(F)F)c3)n2)cc1 [Compound 30]
- Plant response rating (scale of 0 to 100 where 0 is no effect and 100 is complete control) (nutsedge, yellow; 125 g ai/ha): 0
- Plant response rating (scale of 0 to 100 where 0 is no effect and 100 is complete control) (nutsedge, yellow; 250 g ai/ha): 10
- Nutsedge, Yellow plant response rating (0 to 100) (nutsedge, yellow; 31 g ai/ha): 0
- Nutsedge, Yellow plant response rating (0 to 100) (nutsedge, yellow; 62 g ai/ha): 0
- Plant response rating, Kochia (kochia; 125 g ai/ha): 90
- Plant response rating, Kochia (kochia; 500 g ai/ha): 90
- Plant response rating (0 to 100), Field Poppy (field poppy [1]): 95
- Plant response rating: Field Poppy (field poppy [1]; 62 g ai/ha): 100
- Plant response rating: Field Poppy (field poppy [1]; 125 g ai/ha): 100
- Plant response rating: Lambsquarters (lambsquarters; 16 g ai/ha): 85
- Plant response rating: Lambsquarters (lambsquarters; 31 g ai/ha): 90
- Plant response rating: Lambsquarters (lambsquarters; 62 g ai/ha): 95
- Plant response rating: Lambsquarters (lambsquarters; 125 g ai/ha): 95
- Plant response rating, Ragweed (ragweed [2]; 125 g ai/ha): 80
- Plant response rating, Ragweed (ragweed [2]; 500 g ai/ha, approx. 10 d): 80
- Plant response rating: Windgrass (windgrass; 16 g ai/ha): 45
- Plant response rating: Windgrass (windgrass; 31 g ai/ha): 65
- Plant response rating: Windgrass (windgrass; 62 g ai/ha): 75
- Plant response rating: Windgrass (windgrass; 125 g ai/ha): 85
- Ragweed plant response rating (0 to 100) (ragweed [3]; 31 g ai/ha): 55
- Ragweed plant response rating (0 to 100) (ragweed [3]; 62 g ai/ha): 65
- Plant response rating (scale of 0 to 100 where 0 is no effect and 100 is complete control) (ragweed [3]; 125 g ai/ha): 80
- Plant response rating (scale of 0 to 100 where 0 is no effect and 100 is complete control) (ragweed [3]; 250 g ai/ha): 90
- Plant response rating (0 to 100), Canarygrass (canarygrass): 50
- Plant response rating: Canarygrass (canarygrass; 31 g ai/ha): 70
- Plant response rating: Canarygrass (canarygrass; 62 g ai/ha): 100
- Plant response rating: Canarygrass (canarygrass; 125 g ai/ha): 100
- Plant response rating (0 to 100), Galium (galium [4]): 70
- Plant response rating: Galium (galium [4]; 62 g ai/ha): 80
- Plant response rating: Galium (galium [4]; 125 g ai/ha): 85
- Plant response rating: Ryegrass, Ital. (ryegrass, Ital.; 16 g ai/ha): 35
- Plant response rating: Ryegrass, Ital. (ryegrass, Ital.; 31 g ai/ha): 60
- Plant response rating: Ryegrass, Ital. (ryegrass, Ital.; 62 g ai/ha): 65
- Plant response rating: Ryegrass, Ital. (ryegrass, Ital.; 125 g ai/ha): 70
- Plant response rating: Field Poppy (field poppy [5]; 16 g ai/ha): 70
- Plant response rating: Field Poppy (field poppy [5]; 31 g ai/ha): 90
- Plant response rating: Field Poppy (field poppy [5]; 62 g ai/ha): 98
- Plant response rating: Field Poppy (field poppy [5]; 125 g ai/ha): 100
- Plant response rating (scale of 0 to 100 where 0 is no effect and 100 is complete control) (galium [6]; 125 g ai/ha): 95
- Plant response rating (scale of 0 to 100 where 0 is no effect and 100 is complete control) (galium [6]; 250 g ai/ha): 95
- Galium plant response rating (0 to 100) (galium [6]; 31 g ai/ha): 60
- Galium plant response rating (0 to 100) (galium [6]; 62 g ai/ha): 65
- Plant response rating: Oat, Wild (oat, wild; 16 g ai/ha): 40
- Plant response rating: Oat, Wild (oat, wild; 31 g ai/ha): 40
- Plant response rating: Oat, Wild (oat, wild; 62 g ai/ha): 65
- Plant response rating: Oat, Wild (oat, wild; 125 g ai/ha): 75

Structure (SMILES): FC(F)(F)COc1nc(-c2ccc(Cl)cc2)nn1Cc1ccnc(C(F)(F)F)c1 [Compound 31]
- Plant response rating (scale of 0 to 100 where 0 is no effect and 100 is complete control) (nutsedge, yellow; 125 g ai/ha): 5
- Plant response rating (scale of 0 to 100 where 0 is no effect and 100 is complete control) (nutsedge, yellow; 250 g ai/ha): 5
- Nutsedge, Yellow plant response rating (0 to 100) (nutsedge, yellow; 31 g ai/ha): 0
- Nutsedge, Yellow plant response rating (0 to 100) (nutsedge, yellow; 62 g ai/ha): 0
- Plant response rating, Kochia (kochia; 125 g ai/ha): 90
- Plant response rating, Kochia (kochia; 500 g ai/ha): 90
- Plant response rating (0 to 100), Field Poppy (field poppy [1]): 95
- Plant response rating: Field Poppy (field poppy [1]; 62 g ai/ha): 100
- Plant response rating: Field Poppy (field poppy [1]; 125 g ai/ha): 100
- Plant response rating: Lambsquarters (lambsquarters; 16 g ai/ha): 75
- Plant response rating: Lambsquarters (lambsquarters; 31 g ai/ha): 95
- Plant response rating: Lambsquarters (lambsquarters; 62 g ai/ha): 85
- Plant response rating: Lambsquarters (lambsquarters; 125 g ai/ha): 90
- Plant response rating, Ragweed (ragweed [2]; 125 g ai/ha): 50
- Plant response rating, Ragweed (ragweed [2]; 500 g ai/ha): 70
- Plant response rating: Windgrass (windgrass; 16 g ai/ha): 60
- Plant response rating: Windgrass (windgrass; 31 g ai/ha): 70
- Plant response rating: Windgrass (windgrass; 62 g ai/ha): 75
- Plant response rating: Windgrass (windgrass; 125 g ai/ha): 80
- Ragweed plant response rating (0 to 100) (ragweed [3]; 31 g ai/ha): 45
- Ragweed plant response rating (0 to 100) (ragweed [3]; 62 g ai/ha): 50
- Plant response rating (scale of 0 to 100 where 0 is no effect and 100 is complete control) (ragweed [3]; 125 g ai/ha): 65
- Plant response rating (scale of 0 to 100 where 0 is no effect and 100 is complete control) (ragweed [3]; 250 g ai/ha): 75
- Plant response rating (0 to 100), Canarygrass (canarygrass): 50
- Plant response rating: Canarygrass (canarygrass; 31 g ai/ha): 85
- Plant response rating: Canarygrass (canarygrass; 62 g ai/ha): 90
- Plant response rating: Canarygrass (canarygrass; 125 g ai/ha): 100
- Plant response rating (0 to 100), Galium (galium [4]): 70
- Plant response rating: Galium (galium [4]; 62 g ai/ha): 80
- Plant response rating: Galium (galium [4]; 125 g ai/ha): 90
- Plant response rating: Ryegrass, Ital. (ryegrass, Ital.; 16 g ai/ha): 25
- Plant response rating: Ryegrass, Ital. (ryegrass, Ital.; 31 g ai/ha): 30
- Plant response rating: Ryegrass, Ital. (ryegrass, Ital.; 62 g ai/ha): 55
- Plant response rating: Ryegrass, Ital. (ryegrass, Ital.; 125 g ai/ha): 65
- Plant response rating: Field Poppy (field poppy [5]; 16 g ai/ha): 75
- Plant response rating: Field Poppy (field poppy [5]; 31 g ai/ha): 80
- Plant response rating: Field Poppy (field poppy [5]; 62 g ai/ha): 98
- Plant response rating: Field Poppy (field poppy [5]; 125 g ai/ha): 100
- Plant response rating (scale of 0 to 100 where 0 is no effect and 100 is complete control) (galium [6]; 125 g ai/ha): 30
- Plant response rating (scale of 0 to 100 where 0 is no effect and 100 is complete control) (galium [6]; 250 g ai/ha): 35
- Galium plant response rating (0 to 100) (galium [6]; 31 g ai/ha): 5
- Galium plant response rating (0 to 100) (galium [6]; 62 g ai/ha): 30
- Plant response rating: Oat, Wild (oat, wild; 16 g ai/ha): 35
- Plant response rating: Oat, Wild (oat, wild; 31 g ai/ha): 45
- Plant response rating: Oat, Wild (oat, wild; 62 g ai/ha): 70
- Plant response rating: Oat, Wild (oat, wild; 125 g ai/ha): 75

Reference: patent US10681909B2, “Herbicidal triazoles” (FMC Corporation, priority 2014, dated 2020)
